The supplement of paper PMC9334596
Counter-ions that a name gives are not always drawn.

Tested on: mPer2Luc MEF
Test: PER2::LUC luminescence relative to vehicle control (fold of vehicle); higher = higher PER2::LUC reporter signal
Method: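 Secondary dose-response validation of 72 circadian-modulating compounds in mPer2Luc MEFs, threefold dilution series of six doses from 10 uM down to 0.04 uM. PER2::LUC luminescence read at 24 h and 30 h after treatment, normalised to vehicle (DMSO) control.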

[1] = time after treatment: 24-hour, concentration: 0.04μM
[2] = time after treatment: 24-hour, concentration: 0.37μM
[3] = time after treatment: 24-hour, concentration: 3.33μM
[4] = time after treatment: 24-hour, concentration: 10μM
[5] = time after treatment: 30-hour, concentration: 0.04μM
[6] = time after treatment: 30-hour, concentration: 0.37μM
[7] = time after treatment: 30-hour, concentration: 3.33μM
[8] = time after treatment: 30-hour, concentration: 10μM

Row | Compound | PER2::LUC luminescence [1] | PER2::LUC luminescence [2] | PER2::LUC luminescence [3] | PER2::LUC luminescence [4] | PER2::LUC luminescence [5] | PER2::LUC luminescence [6] | PER2::LUC luminescence [7] | PER2::LUC luminescence [8]
1 | CC(C)(C)c1ccc(-c2nc3ccccc3[nH]2)cc1 [ZLN005] | 0.223 | 0.131 | 0.076 | 0.065 | 0.357 | 0.204 | 0.098 | 0.075
2 | COc1ccc(C[C@H]2NC[C@H](O)[C@H]2OC(C)=O)cc1 [Anisomycin] | 0.056 | 0.032 | 0.002 | 0.001 | 0.06 | 0.05 | 0.001 | 0.001
3 | CC(C)c1cnn2c(NCc3ccccc3)cc(NCCCCCCN)nc12 [BS-181] | 1.05 | 0.946 | 0.807 | 0.33 | 0.972 | 0.943 | 0.934 | 0.422
4 | CNC(=O)c1cc(Oc2ccc(NC(=O)Nc3cc(C(C)(C)C)nn3-c3ccc4ncccc4c3)c(F)c2)ccn1 [DCC-2036] | 1.27 | 1.3 | 1.28 | 1.1 | 1.72 | 1.81 | 1.74 | 1.27
5 | O=C(Nc1ccc(OC(F)(F)F)cc1)c1sccc1NCc1ccnc2ccccc12 [OSI-930] | 1.11 | 1.04 | 1.37 | 1.43 | 1.14 | 1.11 | 1.57 | 1.91
6 | CN(C)C/C=C/C(=O)Nc1cc2c(Nc3ccc(F)c(Cl)c3)ncnc2cc1O[C@H]1CCOC1 [BIBW2992 DiMaleate] | 0.774 | 0.77 | 0.48 | 0.026 | 0.705 | 0.696 | 0.442 | 0.028
7 | CCc1cncnc1N1CCN(Cc2nc3ccc(C(F)(F)F)cc3[nH]2)CC1 | 1.03 | 1 | 1.01 | 1.06 | 1 | 1.03 | 1.01 | 1.03
8 | COc1cc(NC(=O)c2ccc(-c3ccc(Cl)cc3)o2)cc(OC)c1 | 0.886 | 0.894 | 0.888 | 0.875 | 0.83 | 0.878 | 0.95 | 0.864
9 | C=CC(=O)Nc1cccc(Nc2nc(Nc3ccc(Oc4ccnc(C(=O)NC)c4)cc3)ncc2F)c1 [CNX-774] | 0.953 | 0.958 | 0.839 | 0.44 | 1.01 | 0.966 | 0.857 | 0.586
10 | Cc1ccc([C@@H]2O[C@H](CO)[C@@H](O)[C@H](O)[C@H]2O)cc1Cc1ccc(-c2ccc(F)cc2)s1 [Canagliflozin] | 1.01 | 0.998 | 0.985 | 1.09 | 0.996 | 0.996 | 0.964 | 0.974
11 | Nc1nccc(Oc2ccc(NC(=O)c3c[nH]cc(-c4ccc(F)cc4)c3=O)cc2F)c1Cl | 1 | 1.02 | 1.03 | 1.12 | 1.06 | 1.03 | 0.929 | 1
12 | C[C@@H](O[C@H]1OCCN(Cc2nn(P(=O)(O)O)c(=O)[nH]2)[C@H]1c1ccc(F)cc1)c1cc(C(F)(F)F)cc(C(F)(F)F)c1 [Fosaprepitant dimeglumine] | 1.06 | 1.02 | 0.627 | 0.456 | 0.978 | 0.951 | 0.891 | 0.849
13 | C/C(=C\C(=O)Nc1ccccc1C(=O)O)c1ccc2ccccc2c1 [BIBR 1532] | 0.94 | 0.97 | 0.991 | 1.16 | 0.94 | 0.891 | 0.98 | 1.26
14 | Nc1ncnc2c1C(=O)N(c1ccc([C@H]3CC[C@H](CC(=O)O)CC3)cc1)CCO2 | 1.04 | 0.984 | 1 | 1 | 1.03 | 0.966 | 1.06 | 1.01
15 | Cc1ccc(NC(=O)c2cccc(N(C)C)c2)cc1NC(=O)c1ccc(O)cc1 | 0.95 | 0.979 | 1.07 | 1.36 | 0.924 | 0.932 | 1.01 | 1.65
16 | CN1CCc2c(c3ccccc3n2Cc2ccc(C(=O)NO)cc2)C1 [Tubastatin A HCl] | 1.07 | 1.05 | 1.05 | 0.699 | 0.984 | 0.982 | 0.916 | 0.576
17 | NS(=O)(=O)c1ccc(NC(=O)Nc2ccc(F)cc2)cc1 [U-104] | 1.04 | 1.05 | 1.01 | 0.876 | 1.05 | 1.06 | 1.06 | 0.947
18 | CCOc1cc2ncc(C#N)c(Nc3ccc(F)c(Cl)c3)c2cc1NC(=O)/C=C/CN(C)C [Pelitinib (EKB-569)] | 0.891 | 0.933 | 0.78 | 0.334 | 0.836 | 0.815 | 0.618 | 0.227
